Type in all cases: biochemical
For test [1], the target named is T1, EfMetAP1b (Enterococcus faecalis, UniProt Q832M5).
T1 construct: gene map; expressed in E. coli and purified
T1 sequence (Q832M5 1-254): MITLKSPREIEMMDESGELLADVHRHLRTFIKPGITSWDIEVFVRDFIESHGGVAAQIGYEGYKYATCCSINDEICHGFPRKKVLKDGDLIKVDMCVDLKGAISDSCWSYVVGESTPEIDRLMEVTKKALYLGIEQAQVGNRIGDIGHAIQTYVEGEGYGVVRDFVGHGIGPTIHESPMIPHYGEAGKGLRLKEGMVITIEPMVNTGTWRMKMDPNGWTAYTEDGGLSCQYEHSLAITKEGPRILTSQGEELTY
In words: fluorescence, hydrolysis of methionyl aminomethylcoumarin.

In test [2] the target is T2, MtMetAP1c (Mycobacterium tuberculosis, UniProt P9WK19).
T2 construct: gene map
T2 sequence (P9WK19 whole entry, looked up): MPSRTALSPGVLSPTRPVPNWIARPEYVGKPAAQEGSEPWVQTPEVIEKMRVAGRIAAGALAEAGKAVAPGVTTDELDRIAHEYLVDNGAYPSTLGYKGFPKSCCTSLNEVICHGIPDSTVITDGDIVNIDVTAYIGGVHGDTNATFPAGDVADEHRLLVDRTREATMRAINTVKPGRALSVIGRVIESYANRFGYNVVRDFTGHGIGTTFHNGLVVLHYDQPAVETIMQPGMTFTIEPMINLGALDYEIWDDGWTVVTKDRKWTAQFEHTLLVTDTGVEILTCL
The test is described as above.

Test [3] deals with T3, HsMetAP1b (Homo sapiens, UniProt P53582).
T3 construct: gene METAP1; expressed in E. coli and purified
Described as above.

In test [4] the target is T1, EfMetAP1b. The test is described as follows: fluorescence, substrate hydrolysis. As to conditions: room temperature; metal not given.
The target in test [5] is T3, HsMetAP1b. The test is described as follows: fluorescence, substrate hydrolysis. As to conditions: room temperature; metal not given.
Test [6] addresses T2, MtMetAP1c. Conditions: room temperature; metal not given.

`CCCCCCCCCCCCCC(=O)O[C@H]1CC[C@H](NC(=O)[C@H](OC)[C@H](O)[C@@H](O)[C@H](O)/C=C/C(C)C)C(=O)N(C)C1` [F12, bengamide B]: the inhibition – broadly, the drop in the measured response relative to a control, in per cent – at 50 µM amounted to 83.3% in test [1], 72.8% in test [2] and 84.7% in test [3].
With `CSCC[C@H](N)C(=O)Nc1ccc2c(C)cc(=O)oc2c1` [methionyl aminomethylcoumarin], the “fluorescence, substrate hydrolysis” value is reported as “enzymatic activity was monitored by fluorescence readings following hydrolysis of the fluorogenic substrate, methionyl aminomethylcoumarin” in test [4]; “enzymatic activity was monitored by fluorescence readings following hydrolysis of the fluorogenic substrate, methionyl aminomethylcoumarin” in test [5]; “enzymatic activity was monitored by fluorescence readings following hydrolysis of the fluorogenic substrate, methionyl aminomethylcoumarin” in test [6].

The record behind these values is article PMC6779907, “Bengamides display potent activity against drug-resistant Mycobacterium tuberculosis” (Scientific Reports, 2019).
